# Results reported in publication PMC6643834 (ACS Omega, 2018).
# Key:
# [1] = system: B. anthracis Sterne 7700 pXO1–/pXO2–; assay: microbe, parasite or virus in culture; format: cell-based; details: Bacillus anthracis, 8 h, read-out: MIC50 Gram-positive Bant
# [2] = system: P. aeruginosa continuous-flow biofilms; assay: Flow cell biofilm assay; format: cell-based, Pseudomonas aeruginosa; details: COMSTAT analysis
# [3] = system: P. aeruginosa purine deoxyribonucleotide levels (bacterial RNR); assay: DPA assay for dNTP quantification; format: cell-based, P. aeruginosa PAO1; details: 5 mM for 3 h, exponential phase, compared to negative control
# class Ia RNR (NrdA) = assay: NrdA expression by Western immunoblot; format: cell-based, P. aeruginosa PAO1; details: 5 mM for 3 h, compared to the negative control
# [4] = system: P. aeruginosa PAO1 static biofilms; assay: Static biofilm assay, P. aeruginosa; format: cell-based, Pseudomonas aeruginosa
# Staph. aureus biofilm = assay: Static biofilm assay, Staph. aureus; format: cell-based, Staphylococcus aureus; details: treating with CIP
structure (smiles),measurement,setting,value
"COc1ccc(CNO)c(C)c1 [Compound 17, N-(4-Methoxy-2-methylbenzyl)hydroxylamine]",MIC50,[1],< 15 µg/mL
"Cc1cc(F)ccc1CNO [Compound 12, N-(4-Fluoro-2-methylbenzyl)hydroxylamine]",decrease of biomass and average thickness,[2],more than 30%
same,reduction of dNTP levels,[3],67.50%
same,induction of NrdA expression (fold),class Ia RNR (NrdA),3
same,reduction of established biofilm,"[4]; after 72 h of treatment, highest concentrations",above 55%
"O=C(O)c1cn(C2CC2)c2cc(N3CCNCC3)c(F)cc2c1=O [CIP, ciprofloxacin, reference compound]",reduction of Staph. aureus biofilm,Staph. aureus biofilm,around 60%
same,reduction of preestablished biofilm,"[4]; CIP 0.5 μg/mL, positive control",more than 85%
"NC(=O)NO [HU, hydroxyurea, reference compound]",reduction of dNTP levels,[3],65.45%
